Laboratory results: the supplement of paper PMC10307832

Experiments:
Assay in all cases: relative viability (nuclei count vs DMSO), 5 days (fraction); higher = more cells survive
[1] = tested on: HCC-44
How it was run: (§1)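 After 5 days of treatment, lung cancer cells in 1536-well plates were fixed and stained in a single step (final 0.05% Triton X-100, 1% formaldehyde, 1 ug/ml Hoechst) and their nuclei counted on 4× images. Treatment had been applied by pin tool the day after seeding as one drug alone or as a fixed anchor-drug dose with five library-drug doses (not always all listed) in √10 steps. Relative viability is the nuclei count of treated wells divided by that of vehicle wells, and values are medians of duplicate plates.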

[2] = tested on: NCI-H441
How it was run: as §1

[3] = tested on: NCI-H23
How it was run: as §1

[4] = tested on: NCI-H3122
How it was run: as §1

[5] = tested on: NCI-H2405
How it was run: as §1

[6] = tested on: PC-3 [JPC-3]
How it was run: as §1

[7] = tested on: NCI-H647
How it was run: as §1

[8] = tested on: HCC-366
How it was run: as §1

[9] = tested on: LXF-289
How it was run: as §1

[10] = tested on: UMC-11
How it was run: as §1

[11] = tested on: NCI-H596
How it was run: as §1

[12] = tested on: PC-14
How it was run: as §1

[13] = tested on: H3255
How it was run: as §1

[14] = tested on: A-427
How it was run: as §1

[15] = tested on: NCI-H1755
How it was run: as §1

[16] = tested on: NCI-H1437
How it was run: as §1

[17] = tested on: NCI-H2347
How it was run: as §1

[18] = tested on: NCI-H2009
How it was run: as §1

[19] = tested on: NCI-H2023
How it was run: as §1

[20] = tested on: NCI-H460
How it was run: as §1

COCC1(CO)C(=O)C2CCN1CC2 (stereo not drawn) [PRIMA-1MET] + CC1(C)CCC(c2ccc(Cl)cc2)=C(CN2CCN(c3ccc(C(=O)NS(=O)(=O)c4ccc(N[C@H](CCN5CCOCC5)CSc5ccccc5)c(S(=O)(=O)C(F)(F)F)c4)cc3)CC2)C1 [Navitoclax] (partner 0.5 µM)
relative viability ([1]; first compound 0.2 µM): 1.05
relative viability ([1]; first compound 0.6325 µM): 0.689
relative viability ([1]; first compound 2 µM): 0.916
relative viability ([1]; first compound 6.325 µM): 1.03
relative viability ([1]; first compound 20 µM): 0.931
relative viability ([2]; first compound 0.2 µM): 0.561
relative viability ([2]; first compound 0.6325 µM): 0.334
relative viability ([2]; first compound 2 µM): 1.02
relative viability ([2]; first compound 6.325 µM): 0.644
relative viability ([2]; first compound 20 µM): 0.0807
relative viability ([3]; first compound 0.2 µM): 1.03
relative viability ([3]; first compound 0.6325 µM): 0.668
relative viability ([3]; first compound 2 µM): 0.701
relative viability ([3]; first compound 6.325 µM): 0.811
relative viability ([3]; first compound 20 µM): 0.119
relative viability ([4]; first compound 0.2 µM): 0.926
relative viability ([4]; first compound 0.6325 µM): 1.02
relative viability ([4]; first compound 2 µM): 1.05
relative viability ([4]; first compound 6.325 µM): 1.01
relative viability ([4]; first compound 20 µM): 0.976
relative viability ([5]; first compound 0.2 µM): 0.676
relative viability ([5]; first compound 0.6325 µM): 0.989
relative viability ([5]; first compound 6.325 µM): 0.52
relative viability ([5]; first compound 20 µM): 0.078
relative viability ([6]; first compound 0.2 µM): 0.853
relative viability ([6]; first compound 0.6325 µM): 0.572
relative viability ([6]; first compound 2 µM): 0.816
relative viability ([6]; first compound 6.325 µM): 0.794
relative viability ([6]; first compound 20 µM): 0.708
relative viability ([7]; first compound 0.2 µM): 1.15
relative viability ([7]; first compound 0.6325 µM): 1
relative viability ([7]; first compound 2 µM): 0.889
relative viability ([7]; first compound 6.325 µM): 1.24
relative viability ([7]; first compound 20 µM): 0.909
relative viability ([8]; first compound 0.2 µM): 1.27
relative viability ([8]; first compound 0.6325 µM): 0.959
relative viability ([8]; first compound 6.325 µM): 0.981
relative viability ([8]; first compound 20 µM): 0.024
relative viability ([9]; first compound 0.2 µM): 0.966
relative viability ([9]; first compound 0.6325 µM): 0.956
relative viability ([9]; first compound 2 µM): 0.93
relative viability ([9]; first compound 6.325 µM): 0.986
relative viability ([9]; first compound 20 µM): 0.903
relative viability ([10]; first compound 0.2 µM): 0.347
relative viability ([10]; first compound 0.6325 µM): 0.268
relative viability ([10]; first compound 2 µM): 0.332
relative viability ([10]; first compound 6.325 µM): 0.331
relative viability ([10]; first compound 20 µM): 0.333
relative viability ([11]; first compound 0.2 µM): 1
relative viability ([11]; first compound 0.6325 µM): 0.797
relative viability ([11]; first compound 2 µM): 1.01
relative viability ([11]; first compound 6.325 µM): 1.08
relative viability ([11]; first compound 20 µM): 0.982
relative viability ([12]; first compound 0.2 µM): 0.951
relative viability ([12]; first compound 0.6325 µM): 0.932
relative viability ([12]; first compound 2 µM): 0.936
relative viability ([12]; first compound 6.325 µM): 1.03
relative viability ([12]; first compound 20 µM): 0.929
relative viability ([13]; first compound 0.2 µM): 0.557
relative viability ([13]; first compound 0.6325 µM): 0.522
relative viability ([13]; first compound 2 µM): 0.515
relative viability ([13]; first compound 6.325 µM): 0.544
relative viability ([13]; first compound 20 µM): 0.354
relative viability ([14]; first compound 0.2 µM): 0.884
relative viability ([14]; first compound 0.6325 µM): 0.821
relative viability ([14]; first compound 2 µM): 0.961
relative viability ([14]; first compound 6.325 µM): 0.968
relative viability ([14]; first compound 20 µM): 1
relative viability ([15]; first compound 0.2 µM): 1.07
relative viability ([15]; first compound 0.6325 µM): 1.01
relative viability ([15]; first compound 2 µM): 0.535
relative viability ([15]; first compound 6.325 µM): 0.953
relative viability ([15]; first compound 20 µM): 1.05
relative viability ([16]; first compound 0.2 µM): 1.14
relative viability ([16]; first compound 0.6325 µM): 1.05
relative viability ([16]; first compound 2 µM): 1.08
relative viability ([16]; first compound 6.325 µM): 1.14
relative viability ([16]; first compound 20 µM): 0.968
relative viability ([17]; first compound 0.2 µM): 0.887
relative viability ([17]; first compound 0.6325 µM): 0.708
relative viability ([17]; first compound 2 µM): 0.519
relative viability ([17]; first compound 6.325 µM): 0.872
relative viability ([17]; first compound 20 µM): 0.754
relative viability ([18]; first compound 0.2 µM): 1.2
relative viability ([18]; first compound 0.6325 µM): 1.23
relative viability ([18]; first compound 2 µM): 1.23
relative viability ([18]; first compound 6.325 µM): 1.16
relative viability ([18]; first compound 20 µM): 0.302
relative viability ([19]; first compound 0.2 µM): 1.04
relative viability ([19]; first compound 0.6325 µM): 0.999
relative viability ([19]; first compound 2 µM): 0.992
relative viability ([19]; first compound 6.325 µM): 1.07
relative viability ([19]; first compound 20 µM): 0.977
relative viability ([20]; first compound 0.2 µM): 1.44
relative viability ([20]; first compound 0.6325 µM): 0.971
relative viability ([20]; first compound 2 µM): 1.06
relative viability ([20]; first compound 6.325 µM): 0.528
relative viability ([20]; first compound 20 µM): 0.0099
